Reference: patent publication US20050074810A1, “Method for non-invasilvely determining the relative levels of two biological substances” (priority 2001, published 2005)
Where two headings read alike, the source gives them in different places.

What was measured:
[1] = In vitro reverse iontophoretic extraction of mannitol and sodium (Example 3, first experiment); conditions: pig, pH 7.4
Method: The anode was placed in the sub-dermal, “donor” chamber, which contained a physiological pH 7.4 buffer (25 mM Tris/TrisHCl+133 mM NaCl) to which the analyte mannitol was added.
In a first experiment, mannitol concentration was 5 mM for the first three hours of experiment and was then increased to 10 mM for a subsequent period of three hours.
(§1) To facilitate the analytical chemistry, the donor solutions were spiked with ^14C-labeled mannitol.
The cathodal (collection) chamber, which contacted the outer surface of the skin contained a 25 mM Tris/TrisHCl buffer at pH 7.4.
(§2) During the first 3-hour period, the entire content of the cathode solution was withdrawn every 60 minutes and the chamber was refilled with fresh buffer.
During the second 3-hour period, the 5 mM mannitol donor solution was replaced with 10 mM mannitol, and the cathodal chamber was then sampled every 30 minutes.

[2] = In vitro reverse iontophoretic extraction of mannitol and sodium (Example 3, second experiment); conditions: pig; for Extracted (mannitol/Na^+) flux (×10^3) ratio / Mannitol flux: pH 7.4
Method: In a second experiment, performed under identical conditions to the first (see FIG. 11), mannitol concentration was 5 mM for the first three hours of experiment, it was then reduced to 3 mM for a subsequent period of one hour and then increased to 10 mM for a subsequent period of one hour.
as §2
During the second 1-hour period, the 5 mM mannitol donor solution was replaced with 3 mM mannitol, and the cathodal chamber was then sampled every 30 minutes.
During the third 1-hour period, the 3 mM mannitol donor solution was replaced with 10 mM mannitol, and the cathodal chamber was then sampled every 30 minutes.

[3] = In vitro reverse iontophoretic extraction of mannitol and sodium with varied sodium level (Example 4); conditions: pig, pH 7.4
Method: The anode was placed in the sub-dermal, “donor” chamber, which contained a physiological pH 7.4 buffer (25 mM Tris/TrisHCl+4 mM KCl).
Both the concentration of the analyte of interest and the internal standard were modified during the experiment.
as §1
(§3) The cathodal (collection) chamber, which contacted the outer surface of the skin, contained a 25 mM Tris/TrisHCl buffer at pH 7.4.
as §2
During the final 1-hour period, the donor solution was replaced with 5 mM mannitol/ 133 mM NaCl, and the cathodal chamber was then sampled every 30 minutes.

[4] = In vitro reverse iontophoretic extraction of glucose, mannitol and sodium (Example 6); format: in vitro ADME, pig
Method: To facilitate the analytical chemistry, the donor solutions were spiked with tritiated glucose and ^14C-labeled mannitol.
as §3
The experimental design was identical to that in FIG. 11, with the exception that both tritiated glucose and ^14C-labeled mannitol were present in the ‘donor’ anode chamber.
During this period, the entire content of the cathode solution was withdrawn every 60 minutes and the chamber was refilled with fresh buffer.

[5] = Method: Every hour, the entire content of the cathode solution was withdrawn and the chamber refilled with fresh buffer.
Three replicates were performed for each lithium concentration.

OC[C@@H](O)[C@@H](O)[C@H](O)[C@H](O)CO [Mannitol, mannitol]
Extracted (mannitol/Na^+) flux (×10^3) ratio ([1]; 60 min, 5 mM): 1.7 ± 0.8 ×10^3
Mannitol flux ([1]; 60 min, 5 mM): 13.3 ± 7.6 nmol · h^−1 · cm^−2
Extracted (mannitol/Na^+) flux (×10^3) ratio ([1]; 120 min, 5 mM): 2.2 ± 0.3 ×10^3
Mannitol flux ([1]; 120 min, 5 mM): 21.0 ± 4.7 nmol · h^−1 · cm^−2
Extracted (mannitol/Na^+) flux (×10^3) ratio ([1]; 180 min, 5 mM): 2.5 ± 0.3 ×10^3
Mannitol flux ([1]; 180 min, 5 mM): 25.2 ± 4.3 nmol · h^−1 · cm^−2
Extracted (mannitol/Na^+) flux (×10^3) ratio ([1]; 210 min, 10 mM): 5.0 ± 0.2 ×10^3
Mannitol flux ([1]; 210 min, 10 mM): 52.2 ± 4.4 nmol · h^−1 · cm^−2
Extracted (mannitol/Na^+) flux (×10^3) ratio ([1]; 240 min, 10 mM): 5.1 ± 0.5 ×10^3
Mannitol flux ([1]; 240 min, 10 mM): 53.2 ± 7.7 nmol · h^−1 · cm^−2
Extracted (mannitol/Na^+) flux (×10^3) ratio ([1]; 270 min, 10 mM): 5.2 ± 0.5 ×10^3
Mannitol flux ([1]; 270 min, 10 mM): 54.1 ± 6.8 nmol · h^−1 · cm^−2
Extracted (mannitol/Na^+) flux (×10^3) ratio ([1]; 300 min, 10 mM): 5.5 ± 0.3 ×10^3
Mannitol flux ([1]; 300 min, 10 mM): 58.1 ± 4.5 nmol · h^−1 · cm^−2
Extracted (mannitol/Na^+) flux (×10^3) ratio ([1]; 330 min, 10 mM): 5.7 ± 0.4 ×10^3
Mannitol flux ([1]; 330 min, 10 mM): 60.9 ± 6.8 nmol · h^−1 · cm^−2
Extracted (mannitol/Na^+) flux (×10^3) ratio ([1]; 360 min, 10 mM): 6.0 ± 0.3 ×10^3
Mannitol flux ([1]; 360 min, 10 mM): 63.2 ± 6.2 nmol · h^−1 · cm^−2
K (Qmann/QNa^+=K.[mann]/[Na^+], slope of FIG. 15b) [2]: 0.07
Extracted (mannitol/Na^+) flux (×10^3) ratio ([2]; 60 min, 5 mM): 1.52 ± 0.4 ×10^3
Mannitol flux ([2]; 60 min, 5 mM): 13.5 ± 4.1 nmol · h^−1 · cm^−2
Extracted (mannitol/Na^+) flux (×10^3) ratio ([2]; 120 min, 5 mM): 2.5 ± 0.3 ×10^3
Mannitol flux ([2]; 120 min, 5 mM): 25.8 ± 4.8 nmol · h^−1 · cm^−2
Extracted (mannitol/Na^+) flux (×10^3) ratio ([2]; 180 min, 5 mM): 2.7 ± 0.3 ×10^3
Mannitol flux ([2]; 180 min, 5 mM): 27.8 ± 4.4 nmol · h^−1 · cm^−2
Extracted (mannitol/Na^+) flux (×10^3) ratio ([2]; 210 min, 3 mM): 1.5 ± 0.2 ×10^3
Mannitol flux ([2]; 210 min, 3 mM): 16.6 ± 3.2 nmol · h^−1 · cm^−2
Extracted (mannitol/Na^+) flux (×10^3) ratio ([2]; 240 min, 3 mM): 1.5 ± 0.5 ×10^3
Mannitol flux ([2]; 240 min, 3 mM): 14.1 ± 2.8 nmol · h^−1 · cm^−2
Extracted (mannitol/Na^+) flux (×10^3) ratio ([2]; 270 min, 10 mM): 5.2 ± 0.5 ×10^3
Mannitol flux ([2]; 270 min, 10 mM): 49.6 ± 8.4 nmol · h^−1 · cm^−2
Extracted (mannitol/Na^+) flux (×10^3) ratio ([2]; 300 min, 10 mM): 5.2 ± 0.7 ×10^3
Mannitol flux ([2]; 300 min, 10 mM): 48.1 ± 8.7 nmol · h^−1 · cm^−2
Extracted (mannitol/Na^+) flux (×10^3) ratio ([3]; 60 min, 5 mM): 1.2 ± 0.2 ×10^3
Mannitol flux ([3]; 60 min, 5 mM): 9.7 ± 1.5 nmol · h^−1 · cm^−2
Extracted (mannitol/Na^+) flux (×10^3) ratio ([3]; 120 min, 5 mM): 2.1 ± 0.1 ×10^3
Mannitol flux ([3]; 120 min, 5 mM): 22.0 ± 1.6 nmol · h^−1 · cm^−2
Extracted (mannitol/Na^+) flux (×10^3) ratio ([3]; 180 min, 5 mM): 2.6 ± 0.1 ×10^3
Mannitol flux ([3]; 180 min, 5 mM): 28.8 ± 1.3 nmol · h^−1 · cm^−2
Extracted (mannitol/Na^+) flux (×10^3) ratio ([3]; 270 min, 3 mM): 1.6 ± 0.1 ×10^3
Mannitol flux ([3]; 270 min, 3 mM): 15.9 ± 0.7 nmol · h^−1 · cm^−2
Extracted (mannitol/Na^+) flux (×10^3) ratio ([3]; 300 min, 3 mM): 1.4 ± 0.1 ×10^3
Mannitol flux ([3]; 300 min, 3 mM): 15.3 ± 0.7 nmol · h^−1 · cm^−2
Extracted (mannitol/Na^+) flux (×10^3) ratio ([3]; 330 min, 5 mM): 2.7 ± 0.1 ×10^3
Mannitol flux ([3]; 330 min, 5 mM): 29.0 ± 0.8 nmol · h^−1 · cm^−2
Extracted (mannitol/Na^+) flux (×10^3) ratio ([3]; 360 min, 5 mM): 2.6 ± 0.1 ×10^3
Mannitol flux ([3]; 360 min, 5 mM): 29.3 ± 0.6 nmol · h^−1 · cm^−2
Extracted flux ratio (10^3×) relative to Na^+ ([4]; Experiment A: subdermal glucose 3 mM, mannitol 7 mM, 60 min): 2.01 ± 0.33 10^3×
Extracted flux ratio (10^3×) relative to Na^+ ([4]; Experiment A: subdermal glucose 3 mM, mannitol 7 mM, 120 min): 3.21 ± 0.21 10^3×
Extracted flux ratio (10^3×) relative to Na^+ ([4]; Experiment A: subdermal glucose 3 mM, mannitol 7 mM, 180 min): 3.64 ± 0.31 10^3×
Extracted flux ratio (10^3×) relative to Na^+ ([4]; Experiment A: subdermal glucose 3 mM, mannitol 7 mM, 240 min): 3.98 ± 0.24 10^3×
Extracted flux ratio (10^3×) relative to Na^+ ([4]; Experiment A: subdermal glucose 3 mM, mannitol 7 mM, 300 min): 4.29 ± 0.40 10^3×
Extracted flux ratio (10^3×) relative to Na^+ ([4]; Experiment A: subdermal glucose 3 mM, mannitol 7 mM, 360 min): 4.65 ± 0.26 10^3×
Extracted flux ratio (10^3×) relative to Na^+ ([4]; Experiment B: subdermal glucose 5 mM, mannitol 5 mM, 60 min): 1.29 ± 0.58 10^3×
Extracted flux ratio (10^3×) relative to Na^+ ([4]; Experiment B: subdermal glucose 5 mM, mannitol 5 mM, 120 min): 2.13 ± 0.47 10^3×
Extracted flux ratio (10^3×) relative to Na^+ ([4]; Experiment B: subdermal glucose 5 mM, mannitol 5 mM, 180 min): 2.53 ± 0.41 10^3×
Extracted flux ratio (10^3×) relative to Na^+ ([4]; Experiment B: subdermal glucose 5 mM, mannitol 5 mM, 240 min): 2.73 ± 0.38 10^3×
Extracted flux ratio (10^3×) relative to Na^+ ([4]; Experiment B: subdermal glucose 5 mM, mannitol 5 mM, 300 min): 2.98 ± 0.41 10^3×
Extracted flux ratio (10^3×) relative to Na^+ ([4]; Experiment B: subdermal glucose 5 mM, mannitol 5 mM, 360 min): 3.15 ± 0.30 10^3×
Extracted flux ratio (10^3×) relative to Na^+ ([4]; Experiment C: subdermal glucose 7 mM, mannitol 3 mM, 60 min): 0.86 ± 0.45 10^3×
Extracted flux ratio (10^3×) relative to Na^+ ([4]; Experiment C: subdermal glucose 7 mM, mannitol 3 mM, 120 min): 1.38 ± 0.46 10^3×
Extracted flux ratio (10^3×) relative to Na^+ ([4]; Experiment C: subdermal glucose 7 mM, mannitol 3 mM, 180 min): 1.62 ± 0.44 10^3×
Extracted flux ratio (10^3×) relative to Na^+ ([4]; Experiment C: subdermal glucose 7 mM, mannitol 3 mM, 240 min): 1.71 ± 0.39 10^3×
Extracted flux ratio (10^3×) relative to Na^+ ([4]; Experiment C: subdermal glucose 7 mM, mannitol 3 mM, 300 min): 1.83 ± 0.40 10^3×
Extracted flux ratio (10^3×) relative to Na^+ ([4]; Experiment C: subdermal glucose 7 mM, mannitol 3 mM, 360 min): 1.94 ± 0.36 10^3×
K (analyte/Na^+ extraction ratio vs sub-dermal concentration ratio, slope of FIG. 22b) ([4]; iontophoresis of 6 hours at 0.5 mA/cm^2): 0.078
K′ (analyte/Na^+ extraction ratio vs analyte sub-dermal concentration, slope of FIG. 22a) ([4]; iontophoresis of 6 hours at 0.5 mA/cm^2, Na^+ fixed 133 mM): 0.586×10^−3

[Li] [lithium]
(10^3×) Extracted (lithium/Na^+) flux ratio ([5]; (10^3×) subdermal [lithium]/[Na^+] ratio 3.4, 60 min): 0.71 ± 0.28 ×10^3
(10^3×) Extracted (lithium/Na^+) flux ratio ([5]; (10^3×) subdermal [lithium]/[Na^+] ratio 3.4, 120 min): 1.38 ± 0.19 ×10^3
(10^3×) Extracted (lithium/Na^+) flux ratio ([5]; (10^3×) subdermal [lithium]/[Na^+] ratio 3.4, 180 min): 1.54 ± 0.20 ×10^3
(10^3×) Extracted (lithium/Na^+) flux ratio ([5]; (10^3×) subdermal [lithium]/[Na^+] ratio 3.4, 240 min): 1.80 ± 0.03 ×10^3
(10^3×) Extracted (lithium/Na^+) flux ratio ([5]; (10^3×) subdermal [lithium]/[Na^+] ratio 3.4, 300 min): 1.62 ± 0.03 ×10^3
(10^3×) Extracted (lithium/Na^+) flux ratio ([5]; (10^3×) subdermal [lithium]/[Na^+] ratio 6.5, 60 min): 1.48 ± 0.41 ×10^3
(10^3×) Extracted (lithium/Na^+) flux ratio ([5]; (10^3×) subdermal [lithium]/[Na^+] ratio 6.5, 120 min): 2.65 ± 0.55 ×10^3
(10^3×) Extracted (lithium/Na^+) flux ratio ([5]; (10^3×) subdermal [lithium]/[Na^+] ratio 6.5, 180 min): 3.13 ± 0.78 ×10^3
(10^3×) Extracted (lithium/Na^+) flux ratio ([5]; (10^3×) subdermal [lithium]/[Na^+] ratio 6.5, 240 min): 2.79 ± 0.35 ×10^3
(10^3×) Extracted (lithium/Na^+) flux ratio ([5]; (10^3×) subdermal [lithium]/[Na^+] ratio 6.5, 300 min): 3.13 ± 0.51 ×10^3
(10^3×) Extracted (lithium/Na^+) flux ratio ([5]; (10^3×) subdermal [lithium]/[Na^+] ratio 10.3, 60 min): 2.28 ± 0.43 ×10^3
(10^3×) Extracted (lithium/Na^+) flux ratio ([5]; (10^3×) subdermal [lithium]/[Na^+] ratio 10.3, 120 min): 4.45 ± 0.64 ×10^3
(10^3×) Extracted (lithium/Na^+) flux ratio ([5]; (10^3×) subdermal [lithium]/[Na^+] ratio 10.3, 180 min): 5.25 ± 0.48 ×10^3
(10^3×) Extracted (lithium/Na^+) flux ratio ([5]; (10^3×) subdermal [lithium]/[Na^+] ratio 10.3, 240 min): 5.64 ± 0.52 ×10^3
(10^3×) Extracted (lithium/Na^+) flux ratio ([5]; (10^3×) subdermal [lithium]/[Na^+] ratio 10.3, 300 min): 5.45 ± 0.36 ×10^3
K′ (QLi/QNa=K′.[Li], slope of FIG. 25a) ([5]; pig, pH 7.4): 4.18×10^−3
K (QLi/QNa=K.[Li]/[Na], slope of FIG. 25b) ([5]; short (5-hour) period of iontophoresis at 0.5 mA/cm^2): 0.56
